Measured values as given in the supplement of paper PMC10733146.

Legend:
Assay in all cases: viability relative to DMSO control (fraction); higher = less drug effect (more viable cells)
Conditions in all cases: 48 h
[1] = tested on: primary MCL patient cells (S053)
How it was run: (§1)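 In 384-well plates with compounds pre-plated at five concentrations (one well per concentration), primary mononuclear tumour cells were plated at 4 × 10^4 cells per well. The cells came from blood or bone marrow by Ficoll isolation or from processed lymph node, and were used fresh or cryopreserved. Culture ran for 48 h at 37 °C and 5% CO2 in RPMI-1640 containing penicillin/streptomycin, L-glutamine and human serum. Viability was read as CellTiter-Glo luminescence, normalised to the median of 16 inner DMSO wells.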

[2] = tested on: primary AML patient cells (S017)
How it was run: as §1

[3] = tested on: primary AML patient cells (S002)
How it was run: as §1

[4] = tested on: primary AML patient cells (S081)
How it was run: as §1

[5] = tested on: primary AML patient cells (S072)
How it was run: as §1

[6] = tested on: primary DLBCL patient cells (S082)
How it was run: as §1

[7] = tested on: primary B-PLL patient cells (S016)
How it was run: as §1

[8] = tested on: primary BL patient cells (S005)
How it was run: as §1

[9] = tested on: primary AML patient cells (S021)
How it was run: as §1

[10] = tested on: primary AML patient cells (S025)
How it was run: as §1

[11] = tested on: primary AML patient cells (S091)
How it was run: as §1

[12] = tested on: primary AML patient cells (S071)
How it was run: as §1

[13] = tested on: primary AML patient cells (S060)
How it was run: as §1

[14] = tested on: primary MCL patient cells (S068)
How it was run: as §1

[15] = tested on: primary AML patient cells (S089)
How it was run: as §1

[16] = tested on: primary CLL patient cells (S043)
How it was run: as §1

[17] = tested on: primary AML patient cells (S037)
How it was run: as §1

[18] = tested on: primary T-PLL patient cells (S008)
How it was run: as §1

[19] = tested on: primary AML patient cells (S009)
How it was run: as §1

## Cc1cc(Nc2ncc(Cl)c(Nc3ccccc3S(=O)(=O)C(C)C)n2)c(OC(C)C)cc1C1CCNCC1 [Ceritinib]
[1]; 0.024 µM
  viability: 0.986
[1]; 0.12 µM
  viability: 1.01
[1]; 0.6 µM
  viability: 1
[1]; 3 µM
  viability: 0.832
[1]; 15 µM
  viability: 0.0213
[2]; 0.024 µM
  viability: 0.958
[2]; 0.12 µM
  viability: 0.963
[2]; 0.6 µM
  viability: 0.995
[2]; 3 µM
  viability: 0.773
[2]; 15 µM
  viability: 0.0225
[3]; 0.024 µM
  viability: 1.12
[3]; 0.12 µM
  viability: 0.926
[3]; 0.6 µM
  viability: 0.861
[3]; 3 µM
  viability: 0.616
[3]; 15 µM
  viability: 0.0299
[4]; 0.024 µM
  viability: 0.963
[4]; 0.12 µM
  viability: 0.957
[4]; 0.6 µM
  viability: 0.967
[4]; 3 µM
  viability: 0.982
[4]; 15 µM
  viability: 0.0181
[5]; 0.024 µM
  viability: 0.954
[5]; 0.12 µM
  viability: 0.939
[5]; 0.6 µM
  viability: 0.79
[5]; 3 µM
  viability: 0.582
[5]; 15 µM
  viability: 0.0168
[6]; 0.024 µM
  viability: 1.05
[6]; 0.12 µM
  viability: 1.04
[6]; 0.6 µM
  viability: 0.617
[6]; 3 µM
  viability: 0.321
[6]; 15 µM
  viability: 0.0186
[7]; 0.024 µM
  viability: 0.945
[7]; 0.12 µM
  viability: 0.832
[7]; 0.6 µM
  viability: 0.743
[7]; 3 µM
  viability: 0.555
[7]; 15 µM
  viability: 0.0198
[8]; 0.024 µM
  viability: 1.05
[8]; 0.12 µM
  viability: 0.992
[8]; 0.6 µM
  viability: 0.944
[8]; 3 µM
  viability: 0.669
[8]; 15 µM
  viability: 0.0199
[9]; 0.024 µM
  viability: 1
[9]; 0.12 µM
  viability: 0.934
[9]; 0.6 µM
  viability: 0.833
[9]; 3 µM
  viability: 0.572
[9]; 15 µM
  viability: 0.03
[10]; 0.024 µM
  viability: 0.985
[10]; 0.12 µM
  viability: 0.874
[10]; 0.6 µM
  viability: 0.838
[10]; 3 µM
  viability: 0.508
[10]; 15 µM
  viability: 0.0191
[11]; 0.024 µM
  viability: 0.947
[11]; 0.12 µM
  viability: 0.77
[11]; 0.6 µM
  viability: 0.436
[11]; 3 µM
  viability: 0.176
[11]; 15 µM
  viability: 0.0224
[12]; 0.024 µM
  viability: 0.865
[12]; 0.12 µM
  viability: 0.781
[12]; 0.6 µM
  viability: 0.476
[12]; 3 µM
  viability: 0.174
[12]; 15 µM
  viability: 0.0165
[13]; 0.024 µM
  viability: 1
[13]; 0.12 µM
  viability: 0.981
[13]; 0.6 µM
  viability: 1.03
[13]; 3 µM
  viability: 0.947
[13]; 15 µM
  viability: 0.0203
[14]; 0.024 µM
  viability: 0.94
[14]; 0.12 µM
  viability: 0.84
[14]; 0.6 µM
  viability: 0.88
[14]; 3 µM
  viability: 1.02
[14]; 15 µM
  viability: 0.0227
[15]; 0.024 µM
  viability: 0.974
[15]; 0.12 µM
  viability: 0.866
[15]; 0.6 µM
  viability: 0.562
[15]; 3 µM
  viability: 0.393
[15]; 15 µM
  viability: 0.0151
[16]; 0.024 µM
  viability: 1.05
[16]; 0.12 µM
  viability: 0.943
[16]; 0.6 µM
  viability: 0.928
[16]; 3 µM
  viability: 0.684
[16]; 15 µM
  viability: 0.0198
[17]; 0.024 µM
  viability: 1.5
[17]; 0.12 µM
  viability: 0.922
[17]; 0.6 µM
  viability: 1.12
[17]; 3 µM
  viability: 0.742
[17]; 15 µM
  viability: 0.296
[18]; 0.024 µM
  viability: 0.991
[18]; 0.12 µM
  viability: 1.04
[18]; 0.6 µM
  viability: 0.939
[18]; 3 µM
  viability: 0.86
[18]; 15 µM
  viability: 0.0194
[19]; 0.024 µM
  viability: 0.937
[19]; 0.12 µM
  viability: 0.903
[19]; 0.6 µM
  viability: 0.823
[19]; 3 µM
  viability: 0.754
[19]; 15 µM
  viability: 0.0293

## CN1CC[C@H](c2c(O)cc(O)c3c(=O)cc(-c4ccccc4Cl)oc23)[C@H](O)C1 [Flavopiridol]
[1]; 0.0032 µM
  viability: 1.02
[1]; 0.016 µM
  viability: 0.938
[1]; 0.08 µM
  viability: 0.951
[1]; 0.4 µM
  viability: 0.469
[1]; 2 µM
  viability: 0.627
[2]; 0.0032 µM
  viability: 1
[2]; 0.016 µM
  viability: 0.986
[2]; 0.08 µM
  viability: 0.96
[2]; 0.4 µM
  viability: 0.18
[2]; 2 µM
  viability: 0.0397
[3]; 0.0032 µM
  viability: 1.02
[3]; 0.016 µM
  viability: 0.927
[3]; 0.08 µM
  viability: 0.69
[3]; 0.4 µM
  viability: 0.241
[3]; 2 µM
  viability: 0.244
[4]; 0.0032 µM
  viability: 1.01
[4]; 0.016 µM
  viability: 0.873
[4]; 0.08 µM
  viability: 0.766
[4]; 0.4 µM
  viability: 0.0954
[4]; 2 µM
  viability: 0.0215
[5]; 0.0032 µM
  viability: 1.17
[5]; 0.016 µM
  viability: 1.05
[5]; 0.08 µM
  viability: 0.754
[5]; 0.4 µM
  viability: 0.156
[5]; 2 µM
  viability: 0.0607
[6]; 0.0032 µM
  viability: 1.03
[6]; 0.016 µM
  viability: 0.977
[6]; 0.08 µM
  viability: 1.11
[6]; 0.4 µM
  viability: 0.103
[6]; 2 µM
  viability: 0.0254
[7]; 0.0032 µM
  viability: 0.932
[7]; 0.016 µM
  viability: 0.862
[7]; 0.08 µM
  viability: 0.959
[7]; 0.4 µM
  viability: 0.217
[7]; 2 µM
  viability: 0.0227
[8]; 0.0032 µM
  viability: 0.794
[8]; 0.016 µM
  viability: 1.26
[8]; 0.08 µM
  viability: 0.644
[8]; 0.4 µM
  viability: 0.534
[8]; 2 µM
  viability: 0.983
[9]; 0.0032 µM
  viability: 0.974
[9]; 0.016 µM
  viability: 0.852
[9]; 0.08 µM
  viability: 0.676
[9]; 0.4 µM
  viability: 0.292
[9]; 2 µM
  viability: 0.124
[10]; 0.0032 µM
  viability: 0.958
[10]; 0.016 µM
  viability: 0.861
[10]; 0.08 µM
  viability: 0.691
[10]; 0.4 µM
  viability: 0.13
[10]; 2 µM
  viability: 0.0473
[11]; 0.0032 µM
  viability: 0.917
[11]; 0.016 µM
  viability: 0.921
[11]; 0.08 µM
  viability: 0.604
[11]; 0.4 µM
  viability: 0.113
[11]; 2 µM
  viability: 0.0958
[12]; 0.0032 µM
  viability: 0.914
[12]; 0.016 µM
  viability: 0.833
[12]; 0.08 µM
  viability: 0.54
[12]; 0.4 µM
  viability: 0.0926
[12]; 2 µM
  viability: 0.0942
[13]; 0.0032 µM
  viability: 0.949
[13]; 0.016 µM
  viability: 0.937
[13]; 0.08 µM
  viability: 0.848
[13]; 0.4 µM
  viability: 0.127
[13]; 2 µM
  viability: 0.0228
[14]; 0.0032 µM
  viability: 0.98
[14]; 0.016 µM
  viability: 0.982
[14]; 0.08 µM
  viability: 0.82
[14]; 0.4 µM
  viability: 0.0704
[14]; 2 µM
  viability: 0.0301
[15]; 0.0032 µM
  viability: 0.742
[15]; 0.016 µM
  viability: 1.01
[15]; 0.08 µM
  viability: 0.362
[15]; 0.4 µM
  viability: 0.0371
[15]; 2 µM
  viability: 0.0437
[16]; 0.0032 µM
  viability: 0.933
[16]; 0.016 µM
  viability: 1.02
[16]; 0.08 µM
  viability: 0.912
[16]; 0.4 µM
  viability: 0.265
[16]; 2 µM
  viability: 0.0335
[17]; 0.0032 µM
  viability: 0.979
[17]; 0.016 µM
  viability: 0.948
[17]; 0.08 µM
  viability: 0.914
[17]; 0.4 µM
  viability: 0.633
[17]; 2 µM
  viability: 0.328
[18]; 0.0032 µM
  viability: 0.953
[18]; 0.016 µM
  viability: 1.03
[18]; 0.08 µM
  viability: 0.916
[18]; 0.4 µM
  viability: 0.804
[18]; 2 µM
  viability: 0.0718
[19]; 0.0032 µM
  viability: 0.95
[19]; 0.016 µM
  viability: 0.898
[19]; 0.08 µM
  viability: 0.619
[19]; 0.4 µM
  viability: 0.199
[19]; 2 µM
  viability: 0.0899
